Values quoted from earlier work, collected in US20100112053A1, “GASTRIC RETENTION-TYPE SUSTAINED-RELEASE LEVODOPA PREPARATION” (Kissei Pharmaceutical Co., Ltd., priority 2007, published 2010).
Like-named read-outs stand apart in the source and are kept apart here.

[1] = under a weakly acidic to basic condition

SMILES	Solubility [1]	Solubility (under an acidic condition)
C[C@@](Cc1ccc(O)c(O)c1)(NN)C(=O)O [carbidopa]	low	high
N[C@@H](Cc1ccc(O)c(O)c1)C(=O)O [levodopa]	low	high
